Assay results: PMC11356900, “Synthesis, Structural Properties and Biological Activities of Novel Hydrazones of 2-, 3-, 4-Iodobenzoic Acid” (Molecules, 2024)
Converted amounts (≈) assume the structure as drawn.

Experiments:
A549 cell line = assay: MTT cytotoxicity assay; assay type: cell-based
Experimental: (§1) Among all the newly synthesized compounds, four compounds designated as: 14, 20, 21 and 27 were selected for further testing of their cytotoxic properties at the doses of 10, 25, 50, 75 and 100 µM. The cytotoxic properties of the above compounds were tested on the cancer cell lines, i.e., A549 (ECACC 86012804) (non-small-cell lung cancer), T47D (ECACC 85102201) (breast cancer), HeLa (ATCC® CCL-2™) (cervical cancer) and normal line L929 (NCTC clone 929, ATCC® CCL-1™) (mouse fibroblasts) using the MTT test for 24- and 48 h cultures.
(§2) A549 (ECACC 86012804) (non-small-cell lung cancer) and T47D (ECACC 85102201) (breast cancer) were obtained from ECACC and propagated in Dulbecco’s Minimal Essential Medium, supplemented with 2 mM of glutamine, antibiotics ([…] streptomycin, 1% of 100 U/L penicillin) and 10% Fetal Bovine Serum. HeLa (ATCC® CCL-2™) (cervical cancer) and L929 (NCTC clone 929, ATCC® CCL-1™) (mouse fibroblasts) cell lines were obtained from ATCC and propagated in the Eagle Minimal Essential Medium supplemented with antibiotics ([…] streptomycin, 1% of 100 U/L penicillin) and with 10% and 5% FBS, respectively. The cell line was routinely grown in 75 cm^2 tissue culture flasks and kept in an incubator (humidified atmosphere of 5% CO2 at 37 °C). All examined cell lines were tested against mycoplasma contamination with microbiological assays.
(§3) The cell viability of tested compounds (14, 20, 21 and 27) was assessed by the MTT assay. In brief, the exponentially growing cells were plated in 100 μL/well in 96-well plates. After 24 h culturing, the cells were treated with different concentrations of compounds (range 10–100 μM). After 24 and 48 h of incubation, 10 μL of 5 mg/mL MTT was added to each well and the plates were incubated at 37 °C for additional 4 h. The medium was subsequently removed, the purple-colored precipitates of formazan were dissolved in 100 μL of DMSO. The color absorbance was recorded at 570 nm using a BioTek model EPOCH ELISA plate reader. All experiments were performed in triplicate. The absorbance values were in the range of linearity of the Lambert–Beer law.

HeLa cell line = assay: MTT cytotoxicity assay; assay type: cell-based
Experimental: as §1, §2, §3

T47D cell line = assay: MTT cytotoxicity assay; assay type: cell-based
Experimental: as §1, §2, §3

[1] = tested on: Staphylococcus aureus ATCC 29213; assay: Broth microdilution MIC/MBC; details: ATCC29213
[2] = tested on: Staphylococcus aureus ATCC 43300; assay: Broth microdilution MIC/MBC; details: ATCC43300 / MRSA
[3] = tested on: Staphylococcus epidermidis ATCC 12228; assay: Broth microdilution MIC/MBC; details: ATCC12228
[4] = tested on: Micrococcus luteus ATCC 10240; assay: Broth microdilution MIC/MBC; details: Micrococcus luteus, ATCC10240

## O=C(N/N=C/c1cc(I)cc(I)c1O)c1ccccc1I [Compound 14, N-[(3,5-diiodo-2-hydroxyphenyl)methylidene]-2-iodobenzohydrazide]
A549 cell line; A549, 24h, 10 µM, Repeat No 1
  cell proliferation: 86%
A549 cell line; A549, 24h, 10 µM, Repeat No 2
  cell proliferation: 77%
A549 cell line; A549, 24h, 25 µM, Repeat No 1
  cell proliferation: 103%
A549 cell line; A549, 24h, 25 µM, Repeat No 2
  cell proliferation: 98%
A549 cell line; A549, 24h, 50 µM, Repeat No 1
  cell proliferation: 89%
A549 cell line; A549, 24h, 50 µM, Repeat No 2
  cell proliferation: 84%
A549 cell line; A549, 24h, 75 µM, Repeat No 1
  cell proliferation: 87%
A549 cell line; A549, 24h, 75 µM, Repeat No 2
  cell proliferation: 89%
A549 cell line; A549, 24h, 100 µM, Repeat No 1
  cell proliferation: 82%
A549 cell line; A549, 24h, 100 µM, Repeat No 2
  cell proliferation: 74%
A549 cell line; A549, 48h, 10 µM, Repeat No 1
  cell proliferation: 93%
A549 cell line; A549, 48h, 10 µM, Repeat No 2
  cell proliferation: 79%
A549 cell line; A549, 48h, 25 µM, Repeat No 1
  cell proliferation: 87%
A549 cell line; A549, 48h, 25 µM, Repeat No 2
  cell proliferation: 91%
A549 cell line; A549, 48h, 50 µM, Repeat No 1
  cell proliferation: 91%
A549 cell line; A549, 48h, 50 µM, Repeat No 2
  cell proliferation: 83%
A549 cell line; A549, 48h, 75 µM, Repeat No 1
  cell proliferation: 89%
A549 cell line; A549, 48h, 75 µM, Repeat No 2
  cell proliferation: 89%
A549 cell line; A549, 48h, 100 µM, Repeat No 1
  cell proliferation: 90%
A549 cell line; A549, 48h, 100 µM, Repeat No 2
  cell proliferation: 96%
HeLa cell line; 24h, 10 µM, Repeat No 1
  cell proliferation: 88%
HeLa cell line; 24h, 10 µM, Repeat No 2
  cell proliferation: 81%
HeLa cell line; 24h, 25 µM, Repeat No 1
  cell proliferation: 93%
HeLa cell line; 24h, 25 µM, Repeat No 2
  cell proliferation: 91%
HeLa cell line; 24h, 50 µM, Repeat No 1
  cell proliferation: 88%
HeLa cell line; 24h, 50 µM, Repeat No 2
  cell proliferation: 82%
HeLa cell line; 24h, 75 µM, Repeat No 1
  cell proliferation: 98%
HeLa cell line; 24h, 75 µM, Repeat No 2
  cell proliferation: 89%
HeLa cell line; 24h, 100 µM, Repeat No 1
  cell proliferation: 82%
HeLa cell line; 24h, 100 µM, Repeat No 2
  cell proliferation: 89%
HeLa cell line; 48h, 10 µM, Repeat No 1
  cell proliferation: 76%
HeLa cell line; 48h, 10 µM, Repeat No 2
  cell proliferation: 79%
HeLa cell line; 48h, 25 µM, Repeat No 1
  cell proliferation: 82%
HeLa cell line; 48h, 25 µM, Repeat No 2
  cell proliferation: 89%
HeLa cell line; 48h, 50 µM, Repeat No 1
  cell proliferation: 85%
HeLa cell line; 48h, 50 µM, Repeat No 2
  cell proliferation: 84%
HeLa cell line; 48h, 75 µM, Repeat No 1
  cell proliferation: 77%
HeLa cell line; 48h, 75 µM, Repeat No 2
  cell proliferation: 71%
HeLa cell line; 48h, 100 µM, Repeat No 1
  cell proliferation: 81%
HeLa cell line; 48h, 100 µM, Repeat No 2
  cell proliferation: 93%
T47D cell line; 24h, 10 µM, Repeat No 1
  cell proliferation: 86%
T47D cell line; 24h, 10 µM, Repeat No 2
  cell proliferation: 89%
T47D cell line; 24h, 25 µM, Repeat No 1
  cell proliferation: 71%
T47D cell line; 24h, 25 µM, Repeat No 2
  cell proliferation: 74%
T47D cell line; 24h, 50 µM, Repeat No 1
  cell proliferation: 79%
T47D cell line; 24h, 50 µM, Repeat No 2
  cell proliferation: 75%
T47D cell line; 24h, 75 µM, Repeat No 1
  cell proliferation: 87%
T47D cell line; 24h, 75 µM, Repeat No 2
  cell proliferation: 80%
T47D cell line; 24h, 100 µM, Repeat No 1
  cell proliferation: 79%
T47D cell line; 24h, 100 µM, Repeat No 2
  cell proliferation: 73%
T47D cell line; 48h, 10 µM, Repeat No 1
  cell proliferation: 71%
T47D cell line; 48h, 10 µM, Repeat No 2
  cell proliferation: 79%
T47D cell line; 48h, 25 µM, Repeat No 1
  cell proliferation: 81%
T47D cell line; 48h, 25 µM, Repeat No 2
  cell proliferation: 79%
T47D cell line; 48h, 50 µM, Repeat No 1
  cell proliferation: 81%
T47D cell line; 48h, 50 µM, Repeat No 2
  cell proliferation: 79%
T47D cell line; 48h, 75 µM, Repeat No 1
  cell proliferation: 72%
T47D cell line; 48h, 75 µM, Repeat No 2
  cell proliferation: 69%
T47D cell line; 48h, 100 µM, Repeat No 1
  cell proliferation: 74%
T47D cell line; 48h, 100 µM, Repeat No 2
  cell proliferation: 69%
other
  melting point: 241 to 245 °C
[1]
  MBC: 500 µg/mL (≈ 809 µM)
  MIC: 125 µg/mL (≈ 202 µM)
[2]
  MBC: 1000 µg/mL (≈ 1620 µM)
  MIC: 250 µg/mL (≈ 405 µM)
[3]
  MBC: 250 µg/mL (≈ 405 µM)
  MIC: 125 µg/mL (≈ 202 µM)
[4]
  MBC: 125 µg/mL (≈ 202 µM)
  MIC: 62.5 µg/mL (≈ 101 µM)
